# Experimental data: US20250312356A1, “TREATMENT OF DYSMENORRHEA” (priority 2024, published 2025)
# Read-outs that look alike come from different tables or passages of the source.
# Tests used:
# [1] = test system: neurotransmitter receptors, re-uptake sites, or steroid receptors; experiment: in vitro receptor binding study
# [2] = test system: GABAA receptors, opioid receptors, or dopamine receptors; experiment: in vitro receptor binding study
# estrogen receptors = experiment: in vitro receptor binding study
# [3] = test system: estrogen, androgen, progestin and glucocorticoid receptors; experiment: in vitro agonist or antagonist activity on steroid hormone receptors; assay type: biochemical
# [4] = test system: isolated human nasal chemosensory neurons; experiment: electrophysiological studies in isolated nasal chemosensory neurons; assay type: cell-based
# [5] = test system: rats, mice, rabbits and dogs; experiment: acute and multidose (28 day) toxicity studies; assay type: in vivo
# [6] = Ames reverse mutation assay
# bone marrow = experiment: in vivo bone marrow micronucleus test
# pregnant rabbits = experiment: reproductive toxicity studies; assay type: in vivo; settings: intravenous doses up to 2.5 mg/kg/day during organogenesis
# [7] = test system: nasal chemosensory mucosa; experiment: electrogram recorded from the surface of the nasal chemosensory mucosa; assay type: in vivo, human; settings: intranasal
# Description: (§1) The half effective dose of this effect was 0.087 μg.
# [8] = test system: human volunteers of both sexes; experiment: reflex activity and physiologic parameters after intranasal administration in volunteers; assay type: in vivo; settings: 1.6 μg intranasal
# Description: as §1
# (§2) 16α,17α-Epoxyestr-4-en-10β-ol-3-one decreased parasympathetic system tone resulting in increased sympathetic activity and stimulation of β2 adrenergic receptors in the bronchiole smooth muscle that induced bronchodilation; • (b) increased skin conductance amplitude is the result of increased skin secretions, which are produced by preponderance of the sympathetic nervous system tone (or decreased parasympathetic tone); • (c) decreased body temperature is explained by increased activity of the posterior (adrenergic) hypothalamus and decreased parasympathetic tone (anterior hypothalamus).
# [9] = test system: women of reproductive age; experiment: clinical study of changes in physiological parameters; assay type: in vivo, human; settings: 0.5 μg nasal spray vs vehicle, 14 women
# [10] = test system: women of reproductive age; experiment: clinical study of core body temperature and tone of the sympathoadrenergic system; assay type: in vivo, human; settings: 1.6 μg nasal spray
# Description: It also changed the tone of the sympathoadrenergic system (as assessed by measuring physiologic sinus arrhythmia) within 5 minutes of administration, and the effect persisted for 15 to 20 minutes.
# [11] = test system: females with DSM-IV-defined PMDD; experiment: Phase 2a study, daily symptom report pain cluster, cramps; assay type: in vivo, human
# Text: During a 3- to 5-week screening period, patients who presented to the clinic for bothersome PMDD symptoms (defined as “affected functioning”) were recruited. The Premenstrual Tension Syndrome scale was used for screening. After study eligibility criteria and PMDD symptom presence were confirmed at Visit 1, patients received single-blind placebo; those with no acute improvement were eligible for randomization study. Randomized patients presented for Visit 2 when PMDD symptoms were bothersome during the second cycle after entry. PH80 (0.9 μg) or placebo was administered intranasally; PMDD symptoms were evaluated 30 and 60 minutes later. Patients were then supplied with their assigned double-blind treatment for intranasal self-administration up to 4 times a day (PH80 0.9 μg/dose or matching placebo) for up to 6 consecutive days before the estimated menses onset in that cycle. On the first day of menses in the second cycle, a follow-up visit (Visit 3) occurred. 82 females were screened; 61 met eligibility criteria and were randomized to receive PH80 (n=33) or placebo (n=28). […] A total of 49 patients provided at least 1 post-treatment assessment and were included in the pain efficacy analysis.
# Pain efficacy analysis for cramping was rated daily by the patient on a 5-point scale ranging from 0 (no symptoms at all) up to 4 (very severe). The overall pain cluster score and individual symptom ratings were compared post-hoc using two-sided T-tests, without adjustments for multiplicity or within-patient variance; means for each group were plotted for each reported day, and no imputation was made for missing data. Results are summarized in Table 2 and depicted in FIG. 3.
# menopausal women = experiment: hot flashes after intranasal administration; assay type: in vivo, human
# Text: as §2
# [12] = test system: women diagnosed with PMDD
# [13] = in vivo
compound,measurement,setting,value
"C[C@]12CCC3C(CCC4=CC(=O)CC[C@]43O)C1C[C@H]1O[C@H]12 (stereo partly drawn) [16α,17α-epoxyestr-4-en-10β-ol-3-one]","binding to neurotransmitter receptors, re-uptake sites, or steroid receptors",[1],no binding
same,"binding to GABAA receptors, opioid receptors, or dopamine receptors",[2],does not bind
same,binding to estrogen receptors,estrogen receptors,does not bind
same,"agonist or antagonist activity on estrogen, androgen, progestin and glucocorticoid receptors",[3],no agonist or antagonist activity
same,concentration giving maximal response (amplitude),[4]; concentration-dependent amplitude,10^−7 to 10^−6 M
same,inward currents,[4]; isolated human nasal chemosensory neurons,induced inward currents
same,electrotonic depolarization of the nasal septal chemosensory mucosa,[4]; nasal septal chemosensory mucosa,electrotonic depolarization of the nasal septal chemosensory mucosa
same,"deaths, adverse clinical signs, effects on laboratory or pathology parameters",[5]; single and repeated intranasal and intravenous doses,no deaths or adverse clinical signs or effects on laboratory or pathology parameters observed
same,tolerability,"[5]; single and repeated intranasal doses (up to 100 μg/rat, 400 μg/rabbit, 600 μg/dog) and intravenous doses up to 2.5 mg/kg",well tolerated in all species tested
same,mutagenic or clastogenic potential,[6],no evidence of mutagenic or clastogenic potential
same,mutagenic or clastogenic potential,bone marrow,no evidence of mutagenic or clastogenic potential
same,effects on maternal or litter parameters,pregnant rabbits,no adverse effects on maternal or litter parameters
same,half effective dose of electrogram activation,[7],0.087 µg
same,activation of the electrogram,[7]; microgram quantities,concentration dependent activation
same,body core temperature (external ear canal),[8],decreased body core temperature
same,cardiac rate,[8],no significant change
same,depth of the inspiratory cycle of respiration,[8],significantly increased amplitude
same,latency of modulation of reflex activity after electrogram,[8],5 to 10 s
same,respiration rate,[8],decreased respiration rate within physiologic range
same,"skeletal muscle tone (electromyogram, chin muscles)",[8],decreased skeletal muscle tone (relaxation)
same,skin conductance (electrodermal activity),[8],increased amplitude
same,cardiac frequency,[9],not statistically significant increase
same,core body temperature,[9],statistically significant decreases
same,galvanic skin reflex,[9],statistically significant decreases
same,respiratory frequency,[9],statistically significant decreases
same,skeletal muscle tone,[9],statistically significant decreases
same,decrease in core body temperature,[10],1±0.23 °C
same,latency of decrease in core body temperature,[10],0.5 to 4 min
same,persistence of decrease in core body temperature,[10],9 ± 2.5 min
same,persistence of effect on tone of the sympathoadrenergic system,[10],15 to 20 min
same,time to change of tone of the sympathoadrenergic system (physiologic sinus arrhythmia),[10],≤ 5 minutes
same,"cramps score, mean","[11]; Day 1, 0.9 μg/dose up to 4 times a day, 5-point scale 0 to 4",1.26
same,"cramps score, mean",[11]; Day 2,1.00
same,"cramps score, mean",[11]; Day 3,0.59
same,"cramps score, mean",[11]; Day 4,0.52
same,"cramps score, mean",[11]; Day 5,0.42
same,"cramps score, mean","[11]; Day 6, n=19, P=0.01 vs placebo",0.21
same,hot flashes,menopausal women,"decreased number, severity and bother of hot flashes"
same,"cortical behavioral symptoms (headache, tension)",[12]; 0.9 μg intranasal aerosol,significant improvements
same,"hypothalamic behavioral symptoms (fatigue, anger, craving for foods)",[12]; 0.9 μg intranasal aerosol,significant improvements
same,"limbic system behavioral symptoms (mood swings, depression, lack of interest)",[12]; 0.9 μg intranasal aerosol,significant improvements
same,mean cramping score,"[12]; Day 1, 29 women, scale 0 to 4",1.19
same,mean headache score,"[12]; Day 1, scale 0 to 4",1.14
same,difference in mean cramping scores vs placebo,"[12]; Day 4, p<0.05, one-tail test",significant
same,difference in mean headache scores vs placebo,"[12]; Day 5, p<0.05, one-tail test",significant
same,share of group reporting cramping symptoms,[12]; Day 6,17%
same,mean cramping score,"[12]; Day 6, scale 0 to 4",0.24
same,mean headache score,"[12]; Day 6, scale 0 to 4",0.28
same,persistence of improvements,[12]; single dose intranasal,approximately 5 hours
same,time to appearance of improvements,[12]; single dose intranasal,≤ 30 min
same,serious adverse events,[12]; up to 4 times daily,No serious adverse events were reported
same,side effects,[12]; up to 4 times daily,minimal and similar to administration of placebo
same,systemic exposure,[13],lack of systemic exposure
